Columns and labels:
Assay in all cases: KINOMEscan
Type in all cases: binding
GCN2(Kin.Dom.2, S808G) = GCN2(Kin.Dom.2, S808G) (Homo sapiens (Human), UniProt Q9P2K8, S808G); settings: 10000 nM, read-out: Percent Control
[1] = biological target: RSK2(Kin.Dom.2-C-terminal) (Homo sapiens (Human), UniProt P51812); settings: 10000 nM, read-out: Percent Control
S6K1 = S6K1 (Homo sapiens (Human), UniProt P23443); settings: S6K1, 10000 nM; read-out: Percent Control
BMPR2 = BMPR2 (Homo sapiens (Human), UniProt Q13873); settings: BMPR2, 10000 nM; read-out: Percent Control
LATS1 = LATS1 (Homo sapiens (Human), UniProt O95835); settings: LATS1, 10000 nM; read-out: Percent Control
TRKB = TRKB (Homo sapiens (Human), UniProt Q16620); settings: 10000 nM, read-out: Percent Control
Sequence of TRKB (Q16620 32-822): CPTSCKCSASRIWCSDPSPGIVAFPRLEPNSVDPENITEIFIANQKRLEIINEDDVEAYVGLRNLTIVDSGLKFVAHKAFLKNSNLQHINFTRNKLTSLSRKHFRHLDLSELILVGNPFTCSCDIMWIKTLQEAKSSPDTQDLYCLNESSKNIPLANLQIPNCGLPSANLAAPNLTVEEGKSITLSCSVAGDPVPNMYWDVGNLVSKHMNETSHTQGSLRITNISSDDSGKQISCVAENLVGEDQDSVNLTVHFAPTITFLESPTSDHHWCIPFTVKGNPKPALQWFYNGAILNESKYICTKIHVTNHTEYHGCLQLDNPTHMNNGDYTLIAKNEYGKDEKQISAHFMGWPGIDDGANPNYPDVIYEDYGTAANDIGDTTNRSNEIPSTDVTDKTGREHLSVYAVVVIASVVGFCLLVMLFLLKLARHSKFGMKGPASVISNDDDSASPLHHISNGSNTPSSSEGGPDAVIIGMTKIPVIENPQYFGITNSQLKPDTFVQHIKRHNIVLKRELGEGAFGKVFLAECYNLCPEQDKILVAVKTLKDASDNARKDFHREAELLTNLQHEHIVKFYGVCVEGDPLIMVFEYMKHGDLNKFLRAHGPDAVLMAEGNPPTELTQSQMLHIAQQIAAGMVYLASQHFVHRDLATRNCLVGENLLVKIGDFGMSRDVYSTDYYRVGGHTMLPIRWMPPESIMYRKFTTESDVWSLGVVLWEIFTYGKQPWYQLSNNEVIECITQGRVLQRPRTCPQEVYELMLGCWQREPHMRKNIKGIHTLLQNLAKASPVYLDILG

MLK2 = MLK2 (Homo sapiens (Human), UniProt Q02779); settings: MLK2, 10000 nM; read-out: Percent Control
PIK3CA(C420R) = PIK3CA(C420R) (Homo sapiens (Human), UniProt P42336, C420R); settings: 10000 nM, read-out: Percent Control
TLK1 = TLK1 (Homo sapiens (Human), UniProt Q9UKI8); settings: TLK1, 10000 nM; read-out: Percent Control
[2] = biological target: RSK1(Kin.Dom.2-C-terminal) (Homo sapiens (Human), UniProt Q15418); settings: 10000 nM, read-out: Percent Control
[3] = biological target: JAK1(JH1domain-catalytic) (Homo sapiens (Human), UniProt P23458); settings: 10000 nM, read-out: Percent Control
[4] = biological target: JAK2(JH1domain-catalytic) (Homo sapiens (Human), UniProt O60674); settings: 10000 nM, read-out: Percent Control
Sequence of JAK2(JH1domain-catalytic) (O60674 849-1124): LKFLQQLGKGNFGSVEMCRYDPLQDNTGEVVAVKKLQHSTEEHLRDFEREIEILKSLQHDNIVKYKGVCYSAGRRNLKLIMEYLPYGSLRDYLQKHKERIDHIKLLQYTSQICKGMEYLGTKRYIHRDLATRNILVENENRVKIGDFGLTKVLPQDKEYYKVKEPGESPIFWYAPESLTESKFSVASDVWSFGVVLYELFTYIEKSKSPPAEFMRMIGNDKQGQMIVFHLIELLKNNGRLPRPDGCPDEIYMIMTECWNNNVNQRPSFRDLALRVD

AURKA = AURKA (Homo sapiens (Human), UniProt O14965); settings: 10000 nM, read-out: Percent Control
[5] = biological target: ABL1(F317L)-nonphosphorylated (Homo sapiens (Human), UniProt P00519, F317L); settings: 10000 nM, read-out: Percent Control
NEK7 = NEK7 (Homo sapiens (Human), UniProt Q8TDX7); settings: NEK7, 10000 nM; read-out: Percent Control
NEK6 = NEK6 (Homo sapiens (Human), UniProt Q9HC98); settings: NEK6, 10000 nM; read-out: Percent Control
MINK = MINK (Homo sapiens (Human), UniProt Q8N4C8); settings: 10000 nM, read-out: Percent Control
GRK3 = GRK3 (Homo sapiens (Human), UniProt P35626); settings: GRK3, 10000 nM; read-out: Percent Control
ARK5 = ARK5 (Homo sapiens (Human), UniProt O60285); settings: ARK5, 10000 nM; read-out: Percent Control
Sequence of ARK5 (O60285 whole entry): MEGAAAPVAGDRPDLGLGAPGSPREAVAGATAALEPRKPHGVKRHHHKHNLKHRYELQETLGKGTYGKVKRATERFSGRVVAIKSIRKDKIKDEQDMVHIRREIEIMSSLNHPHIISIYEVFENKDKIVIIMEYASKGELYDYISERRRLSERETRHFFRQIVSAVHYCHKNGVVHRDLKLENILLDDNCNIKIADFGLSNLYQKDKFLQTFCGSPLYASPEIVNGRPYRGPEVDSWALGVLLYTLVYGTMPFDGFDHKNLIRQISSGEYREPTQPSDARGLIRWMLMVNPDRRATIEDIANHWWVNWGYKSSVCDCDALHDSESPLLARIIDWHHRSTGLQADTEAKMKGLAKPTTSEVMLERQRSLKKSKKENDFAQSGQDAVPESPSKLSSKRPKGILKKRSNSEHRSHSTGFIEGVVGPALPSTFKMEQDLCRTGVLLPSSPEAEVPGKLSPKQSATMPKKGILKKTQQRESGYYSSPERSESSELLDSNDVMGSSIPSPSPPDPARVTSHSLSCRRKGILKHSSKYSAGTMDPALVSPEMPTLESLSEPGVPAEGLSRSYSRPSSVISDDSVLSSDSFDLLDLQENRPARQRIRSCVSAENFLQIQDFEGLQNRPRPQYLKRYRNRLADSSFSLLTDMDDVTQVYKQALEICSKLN

HIPK2 = HIPK2 (Homo sapiens (Human), UniProt Q9H2X6); settings: HIPK2, 10000 nM; read-out: Percent Control
ASK1 = ASK1 (Homo sapiens (Human), UniProt Q99683); settings: ASK1, 10000 nM; read-out: Percent Control
SIK2 = SIK2 (Homo sapiens (Human), UniProt Q9H0K1); settings: SIK2, 10000 nM; read-out: Percent Control
AMPK-alpha2 = AMPK-alpha2 (Homo sapiens (Human), UniProt P54646); settings: AMPK-alpha2, 10000 nM; read-out: Percent Control
PIK3CA(E545K) = PIK3CA(E545K) (Homo sapiens (Human), UniProt P42336, E545K); settings: 10000 nM, read-out: Percent Control
Sequence of PIK3CA(E545K) (P42336 whole entry E545K): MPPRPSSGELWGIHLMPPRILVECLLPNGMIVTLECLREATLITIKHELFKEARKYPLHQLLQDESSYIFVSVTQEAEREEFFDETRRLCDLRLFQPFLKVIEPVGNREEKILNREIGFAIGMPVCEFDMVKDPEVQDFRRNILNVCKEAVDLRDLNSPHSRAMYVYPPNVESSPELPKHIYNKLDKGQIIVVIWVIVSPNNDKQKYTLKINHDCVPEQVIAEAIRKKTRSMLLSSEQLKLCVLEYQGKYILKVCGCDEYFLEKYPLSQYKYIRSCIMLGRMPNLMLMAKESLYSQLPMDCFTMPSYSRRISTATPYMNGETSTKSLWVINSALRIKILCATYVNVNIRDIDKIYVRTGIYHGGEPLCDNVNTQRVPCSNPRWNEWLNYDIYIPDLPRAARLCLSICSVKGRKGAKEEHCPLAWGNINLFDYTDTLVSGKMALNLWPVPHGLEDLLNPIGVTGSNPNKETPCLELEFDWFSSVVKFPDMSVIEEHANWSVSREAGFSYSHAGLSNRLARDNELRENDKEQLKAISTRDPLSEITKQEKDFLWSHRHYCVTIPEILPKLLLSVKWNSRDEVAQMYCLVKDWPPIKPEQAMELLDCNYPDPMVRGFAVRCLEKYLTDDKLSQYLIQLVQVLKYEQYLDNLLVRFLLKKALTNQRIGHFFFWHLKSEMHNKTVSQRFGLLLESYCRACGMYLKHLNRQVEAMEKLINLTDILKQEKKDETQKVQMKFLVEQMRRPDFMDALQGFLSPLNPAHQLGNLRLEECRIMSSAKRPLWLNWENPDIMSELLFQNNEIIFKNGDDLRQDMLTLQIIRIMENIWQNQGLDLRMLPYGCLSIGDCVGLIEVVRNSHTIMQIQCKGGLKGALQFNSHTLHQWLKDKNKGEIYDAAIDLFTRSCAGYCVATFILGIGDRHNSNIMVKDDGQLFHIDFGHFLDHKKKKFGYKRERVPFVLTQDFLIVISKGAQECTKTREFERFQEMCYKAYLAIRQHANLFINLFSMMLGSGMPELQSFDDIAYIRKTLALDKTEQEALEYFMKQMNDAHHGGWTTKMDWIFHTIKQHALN

MAK = MAK (Homo sapiens (Human), UniProt P20794); settings: 10000 nM, read-out: Percent Control
HCK = HCK (Homo sapiens (Human), UniProt P08631); settings: 10000 nM, read-out: Percent Control
KIT(D816H) = KIT(D816H) (Homo sapiens (Human), UniProt P10721, D816H); settings: 10000 nM, read-out: Percent Control
MARK2 = MARK2 (Homo sapiens (Human), UniProt Q7KZI7); settings: MARK2, 10000 nM; read-out: Percent Control
PRKD3 = PRKD3 (Homo sapiens (Human), UniProt O94806); settings: PRKD3, 10000 nM; read-out: Percent Control
Sequence of PRKD3 (O94806 whole entry): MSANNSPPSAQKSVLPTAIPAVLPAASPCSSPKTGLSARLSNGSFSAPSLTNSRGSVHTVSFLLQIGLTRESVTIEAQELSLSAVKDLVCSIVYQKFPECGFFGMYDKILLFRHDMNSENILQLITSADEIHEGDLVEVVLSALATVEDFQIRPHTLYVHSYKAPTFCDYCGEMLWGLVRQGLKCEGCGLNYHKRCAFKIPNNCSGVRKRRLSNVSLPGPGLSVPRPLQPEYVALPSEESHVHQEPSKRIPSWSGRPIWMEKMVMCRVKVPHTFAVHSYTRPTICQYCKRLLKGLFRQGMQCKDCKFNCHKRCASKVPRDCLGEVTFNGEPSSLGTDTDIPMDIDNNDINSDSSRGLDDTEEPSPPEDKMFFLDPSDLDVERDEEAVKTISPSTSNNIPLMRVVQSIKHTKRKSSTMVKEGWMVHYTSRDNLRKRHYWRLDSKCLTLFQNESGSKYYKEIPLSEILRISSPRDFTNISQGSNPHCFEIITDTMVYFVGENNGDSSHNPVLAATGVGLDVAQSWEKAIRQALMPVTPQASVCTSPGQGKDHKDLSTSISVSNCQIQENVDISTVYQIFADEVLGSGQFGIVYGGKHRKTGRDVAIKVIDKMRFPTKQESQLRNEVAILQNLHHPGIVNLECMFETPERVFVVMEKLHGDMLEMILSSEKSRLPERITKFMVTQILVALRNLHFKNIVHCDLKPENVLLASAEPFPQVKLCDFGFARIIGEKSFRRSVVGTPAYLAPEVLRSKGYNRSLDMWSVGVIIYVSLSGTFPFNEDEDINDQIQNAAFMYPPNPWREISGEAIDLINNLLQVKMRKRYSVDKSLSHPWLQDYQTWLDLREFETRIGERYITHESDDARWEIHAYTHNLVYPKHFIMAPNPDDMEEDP

PRKCI = PRKCI (Homo sapiens (Human), UniProt P41743); settings: 10000 nM, read-out: Percent Control
MST1R = MST1R (Homo sapiens (Human), UniProt Q04912); settings: 10000 nM, read-out: Percent Control
Sequence of MST1R (Q04912 25-1400): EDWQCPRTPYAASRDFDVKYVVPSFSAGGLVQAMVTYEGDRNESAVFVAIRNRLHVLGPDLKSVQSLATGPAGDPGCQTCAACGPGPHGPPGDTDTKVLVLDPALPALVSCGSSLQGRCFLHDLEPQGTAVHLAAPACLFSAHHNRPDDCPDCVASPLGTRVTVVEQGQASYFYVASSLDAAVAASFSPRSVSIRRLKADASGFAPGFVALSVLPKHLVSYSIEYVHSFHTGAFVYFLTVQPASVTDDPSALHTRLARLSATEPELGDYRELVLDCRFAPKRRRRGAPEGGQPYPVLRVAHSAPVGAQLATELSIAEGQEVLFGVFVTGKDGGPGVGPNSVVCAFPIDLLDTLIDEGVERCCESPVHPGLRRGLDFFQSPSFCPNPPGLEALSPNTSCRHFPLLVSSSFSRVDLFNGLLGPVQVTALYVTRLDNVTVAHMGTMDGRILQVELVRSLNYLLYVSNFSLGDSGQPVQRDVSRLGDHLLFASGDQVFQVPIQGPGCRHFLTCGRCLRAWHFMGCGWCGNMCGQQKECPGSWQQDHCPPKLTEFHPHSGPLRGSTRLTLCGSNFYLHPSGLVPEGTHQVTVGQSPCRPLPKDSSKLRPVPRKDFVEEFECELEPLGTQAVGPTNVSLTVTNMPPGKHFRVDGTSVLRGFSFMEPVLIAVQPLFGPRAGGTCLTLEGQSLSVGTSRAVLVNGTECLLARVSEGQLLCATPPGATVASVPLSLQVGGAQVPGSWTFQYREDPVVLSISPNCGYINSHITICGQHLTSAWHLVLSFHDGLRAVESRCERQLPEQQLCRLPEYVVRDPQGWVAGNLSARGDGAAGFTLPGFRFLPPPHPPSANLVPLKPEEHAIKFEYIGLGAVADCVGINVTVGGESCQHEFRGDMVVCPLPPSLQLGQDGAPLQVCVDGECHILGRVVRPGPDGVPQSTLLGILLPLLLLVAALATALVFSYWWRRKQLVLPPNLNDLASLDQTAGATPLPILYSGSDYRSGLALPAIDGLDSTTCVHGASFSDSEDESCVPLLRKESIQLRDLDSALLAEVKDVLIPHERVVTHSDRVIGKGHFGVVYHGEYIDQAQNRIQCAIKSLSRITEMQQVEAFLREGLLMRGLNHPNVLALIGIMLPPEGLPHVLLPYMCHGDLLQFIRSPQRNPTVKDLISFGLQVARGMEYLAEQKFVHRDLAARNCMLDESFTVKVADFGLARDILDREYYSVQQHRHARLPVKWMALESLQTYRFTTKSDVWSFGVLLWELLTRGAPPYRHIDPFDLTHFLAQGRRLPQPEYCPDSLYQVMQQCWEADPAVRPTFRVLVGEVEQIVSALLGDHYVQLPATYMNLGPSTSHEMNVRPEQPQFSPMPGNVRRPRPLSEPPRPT

CAMK2A = CAMK2A (Homo sapiens (Human), UniProt Q9UQM7); settings: 10000 nM, read-out: Percent Control
MST2 = MST2 (Homo sapiens (Human), UniProt Q13188); settings: MST2, 10000 nM; read-out: Percent Control
WEE1 = WEE1 (Homo sapiens (Human), UniProt P30291); settings: WEE1, 10000 nM; read-out: Percent Control
MRCKA = MRCKA (Homo sapiens (Human), UniProt Q5VT25); settings: 10000 nM, read-out: Percent Control

## COc1cc(N2CCC(N3CCN(C)CC3)CC2)ccc1Nc1ncc2c(n1)N(C)c1sc(C)nc1C(=O)N2 [Compound 3, 6-((2-methoxy-4-(4-(4-methylpiperazin-1-yl)piperidin-1-yl)phenyl)amino)-2,4-dimethyl-4,9-dihydro-10H-pyrimido[5,4-b]thiazolo[5,4-e][1,4]diazepin-10-one]
GCN2(Kin.Dom.2, S808G)
  remaining binding at 10 µM: 88%
[1]
  remaining binding at 10 µM: 100%
S6K1
  remaining binding at 10 µM: 100%
BMPR2
  remaining binding at 10 µM: 100%
LATS1
  remaining binding at 10 µM: 77%
TRKB
  remaining binding at 10 µM: 100%
MLK2
  remaining binding at 10 µM: 96%
PIK3CA(C420R)
  remaining binding at 10 µM: 90%
TLK1
  remaining binding at 10 µM: 90%
[2]
  remaining binding at 10 µM: 81%
[3]
  remaining binding at 10 µM: 85%
[4]
  remaining binding at 10 µM: 100%
AURKA
  remaining binding at 10 µM: 92%
[5]
  remaining binding at 10 µM: 3.9%
NEK7
  remaining binding at 10 µM: 63%
NEK6
  remaining binding at 10 µM: 78%
MINK
  remaining binding at 10 µM: 100%
GRK3
  remaining binding at 10 µM: 100%
ARK5
  remaining binding at 10 µM: 86%
HIPK2
  remaining binding at 10 µM: 100%
ASK1
  remaining binding at 10 µM: 74%
SIK2
  remaining binding at 10 µM: 86%
AMPK-alpha2
  remaining binding at 10 µM: 83%
PIK3CA(E545K)
  remaining binding at 10 µM: 90%
MAK
  remaining binding at 10 µM: 71%
HCK
  remaining binding at 10 µM: 69%
KIT(D816H)
  remaining binding at 10 µM: 22%
MARK2
  remaining binding at 10 µM: 100%
PRKD3
  remaining binding at 10 µM: 75%
PRKCI
  remaining binding at 10 µM: 73%
MST1R
  remaining binding at 10 µM: 90%
CAMK2A
  remaining binding at 10 µM: 76%
MST2
  remaining binding at 10 µM: 100%
WEE1
  remaining binding at 10 µM: 88%
MRCKA
  remaining binding at 10 µM: 98%

## COc1cc(N2CCC(N3CCN(C)CC3)CC2)ccc1Nc1ncc2c(n1)N(C)c1sc(C)nc1C(=O)N2C [Compound 5, 6-((2-methoxy-4-(4-(4-methylpiperazin-1-yl)piperidin-1-yl)phenyl)amino)-2,4,9-trimethyl-4,9-dihydro-10H-pyrimido[5,4-b]thiazolo[5,4-e][1,4]diazepin-10-one]
GCN2(Kin.Dom.2, S808G)
  remaining binding at 10 µM: 94%
[1]
  remaining binding at 10 µM: 99%
S6K1
  remaining binding at 10 µM: 100%
BMPR2
  remaining binding at 10 µM: 100%
LATS1
  remaining binding at 10 µM: 50%
TRKB
  remaining binding at 10 µM: 100%
MLK2
  remaining binding at 10 µM: 76%
PIK3CA(C420R)
  remaining binding at 10 µM: 100%
TLK1
  remaining binding at 10 µM: 81%
[2]
  remaining binding at 10 µM: 55%
[3]
  remaining binding at 10 µM: 100%
[4]
  remaining binding at 10 µM: 99%
AURKA
  remaining binding at 10 µM: 78%
[5]
  remaining binding at 10 µM: 54%
NEK7
  remaining binding at 10 µM: 100%
NEK6
  remaining binding at 10 µM: 90%
MINK
  remaining binding at 10 µM: 100%
GRK3
  remaining binding at 10 µM: 81%
ARK5
  remaining binding at 10 µM: 94%
HIPK2
  remaining binding at 10 µM: 100%
ASK1
  remaining binding at 10 µM: 88%
SIK2
  remaining binding at 10 µM: 99%
AMPK-alpha2
  remaining binding at 10 µM: 100%
PIK3CA(E545K)
  remaining binding at 10 µM: 100%
MAK
  remaining binding at 10 µM: 100%
HCK
  remaining binding at 10 µM: 95%
KIT(D816H)
  remaining binding at 10 µM: 100%
MARK2
  remaining binding at 10 µM: 100%
PRKD3
  remaining binding at 10 µM: 34%
PRKCI
  remaining binding at 10 µM: 97%
MST1R
  remaining binding at 10 µM: 100%
CAMK2A
  remaining binding at 10 µM: 100%
MST2
  remaining binding at 10 µM: 100%
WEE1
  remaining binding at 10 µM: 98%
MRCKA
  remaining binding at 10 µM: 84%
